Data: patent US5328823A, “Enzyme-based biosensors for detecting noble gases” (American Air Liquide, priority 1992, dated 1994)

Tests used:
Tyrosinase [1] = assay: Gas biosensor diffusion cell, Tyrosinase/L-Tyrosine reaction monitored at 305 nm, Curlon Grade 861 film; type: biochemical, Mushroom; conditions: gas in upper chamber of diffusion cell, 25° C.; for maximum change in enzymatic activity, Reference Air: compared to air diffusion through the film; for maximum change in enzymatic activity, Reference Nitrogen: compared to nitrogen
Description: Construction consists of coupling two 1-cm lightpath UV grade methacrylate covets with a ring of 100% silicone rubber (General Purpose Sealant, Dow Corning) applied on their outside rim. Before sealing with silicone, a 1-cm^2 square of a polymeric film of known permeabilities to the different gases is placed between the two cuvettes. Holes have been previously drilled in each covet (drill bit 7/64") to receive a septum (d=3 mm; h=8 mm; Supelco No. 3-3301M). 100% silicone rubber was applied around the septa to avoid possible leaks.
Tyrosinase/L-Tyrosine monitored at 305 nm
Enzyme: Tyrosinase (SIGMA No. T-7755) (Monophenol monooxygenase; Polyphenol oxidase; Catechol oxidase; Monophenol, dihydroxyphenylalanine: oxygen oxidoreductase; From Mushroom
Chamber 1 (upper) is flushed for 2 […] with 100% nitrogen (very low flow to prevent tearing of the polymeric film: line delivery pressure <5 psi) at ambient temperature (25° C.), using 22G11/2 needles (small gauge to reduce risks of leakage through holes in septa).
Chamber 2 (lower) is flushed in the same way as chamber 1.
Chamber 2 is then filled with 2.0 ml of N2 -saturated solution C, by means of a 3 cc syringe (previously purged with N2).
Before the spectrophotometric run, 20 cc of the appropriate gas (Air, N2, Ar, Kr, Xe) is passed through chamber 1 of each of the 3 diffusion cells simultaneously, by means of a 30 cc syringe.
Following immediately, the run starting time t0 is given by the simultaneous injections of 0.5 ml of N2 -saturated-solution B in chamber 2 of each diffusion cell. The 1 cc syringes used for sampling the 0.5 ml are previously purged with N2.
A selected example is given below for one of the enzymatic system/polymeric film tandems assayed. Given as well is the maximum change in enzymatic activity noted compared to the reaction resulting from air diffusion through the film, or compared to nitrogen. A sample graphic data output file is appended.
Polymeric film insert in diffusion cells: Curlon Grade 861 (CURWOOD).
Biochemical reaction (monitored at 305 nm): Tyrosinase/L-Tyrosine at 25° C. and optimal reaction conditions, gas in upper chamber of the diffusion cell being: […]

Tyrosinase [2] = assay: Tyrosinase/L-tyrosine biosensing bag (Curlon Grade 861) placed in gas-packaged food packages, rate of colour change; type: biochemical, Mushroom
Description: The above mentioned oxido-reductase system (tyrosinase/L-tyrosine) is placed inside a 3 cc bag by heat-sealing of the polymeric film used in protocol described above (Curlon Grade 861, Curwood).
The 3 cc bag is placed into a series of packages containing food products under different gas mixtures, which include neon, argon, krypton, xenon, oxygen, nitrogen and carbon dioxide. The relative rate of changing color of the device, that is the development of a pink-brown color, is monitored over time.
A similar series is run, but after holes have been punctured in the packages to simulate leaks. The rate of changing color is then monitored. Thus we have made a leak detection system.
In the same manner, the exchange of gases through the film of the packages and the change in respiration of fresh horticultural commodities can also be monitored. […] Preparation of a standard curve permits detection of each type of gas mix relative to the other, and also permits detection of a change in oxygen level caused by vegetable respiration.

particulate sialidase = conditions: highly impure enzymes; the patent calls these results questionable; cited from earlier work
β-D-Glucosidase = assay: β-D-Glucosidase/p-Nitrophenyl-β-D-Glucopyranoside biosensing bag (PE 2 mil) in gas-packaged produce, rate of yellow colour change; type: biochemical, Almonds; conditions: packaged vegetables, compared with nitrogen packaged produce; acceleration rather than inhibition
Description: The above mentioned hydrolase system (β-D-Glucosidase/p-Nitrophenyl-β-D-Glucopyranoside) is placed inside a 3 cc bag by heat-sealing of the polymeric film used in protocol described above (PE 2 mil).
The protocol followed is the same as described in the third detailed example of the invention, except for the fact that the colorigenic reaction observed is yellow, and is an acceleration rather than an inhibition. Thus, Kr packaged vegetables will produce a yellow color change in the device faster than will nitrogen packaged produce.

[3] = per atmosphere of added nitrous oxide; independent of oxygen partial pressure; cited from earlier work

SMILES | maximum change in enzymatic activity, Reference Air (Tyrosinase [1]) [%] | maximum change in enzymatic activity, Reference Nitrogen (Tyrosinase [1]) [%] | rate of changing color of the biosensing device (pink-brown) (Tyrosinase [2]; packaged vegetables, compared with the package under 100% N2) | effect on activity of particulate sialidase (particulate sialidase) | rate of yellow color change in the device (β-D-Glucosidase) | rate of changing color of the biosensing device, case of a leak (Tyrosinase [2]; package under 100% gas, compared with 100% N2) | inhibition per atmosphere of added gas [3] [%]
[Ar] [Ar, argon] | -25 | -21 | turns color more slowly | – | – | – | –
FC(F)(F)C(Cl)Br (stereo not shown) [halothane] | – | – | – | enhance the activity | – | – | –
[Kr] [Kr, krypton] | -35 | -32 | – | – | faster | turns color more slowly | –
[Xe] [Xe, xenon] | -30 | -26 | – | enhance the activity | – | – | –
[N-]=[N+]=O [nitrous oxide] | – | – | – | enhance the activity | – | – | 1.9
